Results on one molecule are retold here after patent US5246830A, “Enzymatic process for the determination of β-lactam antibiotics” (Ucb Bioproducts, S.A., priority 1990, dated 1993).

The assay concerns the target enzyme R39 (Actinomadura sp. R39, UniProt P39045). Briefly: Stability of the enzyme R39-antibiotic complex. The following applies: at 37° C. Type of assay: binding. How it is done: the extraordinary stability of the said complex, because, once formed it only breaks down very slowly. By way of example, the half-life of the complex formed between enzyme R39 and penicillin G is about 70 hours at 37° C.; and […]

Each structure is given as a SMILES string.

Sequence of enzyme R39 (P39045 50-515): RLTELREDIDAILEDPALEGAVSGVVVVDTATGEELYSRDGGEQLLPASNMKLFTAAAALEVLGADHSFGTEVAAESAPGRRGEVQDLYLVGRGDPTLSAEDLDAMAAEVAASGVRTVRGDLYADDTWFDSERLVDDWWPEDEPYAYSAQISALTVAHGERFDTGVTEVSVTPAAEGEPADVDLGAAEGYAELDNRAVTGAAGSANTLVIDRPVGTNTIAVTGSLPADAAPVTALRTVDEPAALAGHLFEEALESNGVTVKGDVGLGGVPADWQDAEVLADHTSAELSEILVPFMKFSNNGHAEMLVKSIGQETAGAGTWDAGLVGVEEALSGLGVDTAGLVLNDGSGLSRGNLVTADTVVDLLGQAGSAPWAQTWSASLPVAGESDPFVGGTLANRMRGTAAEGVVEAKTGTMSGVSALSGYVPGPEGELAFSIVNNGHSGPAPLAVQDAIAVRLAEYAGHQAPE

With `CC1(C)S[C@@H]2[C@H](NC(=O)Cc3ccccc3)C(=O)N2[C@H]1C(=O)O` [penicillin G, benzyl penicillin (penicillin G)], the “half-life of the complex formed between enzyme R39 and the antibiotic” value is on record as “about 70 hours”.
